The record followed here is patent EP3421457B1, “PYRIMIDINE FGFR4 INHIBITORS” (priority 2013, dated 2015).

Each structure is given as a SMILES string. Structures can show the parent of a compound that is named as a salt.

In the assay the target is T1, FGFR4 (Homo sapiens, UniProt P22455).
T1 construct: purchased Invitrogen
T1 sequence (P22455 22-802): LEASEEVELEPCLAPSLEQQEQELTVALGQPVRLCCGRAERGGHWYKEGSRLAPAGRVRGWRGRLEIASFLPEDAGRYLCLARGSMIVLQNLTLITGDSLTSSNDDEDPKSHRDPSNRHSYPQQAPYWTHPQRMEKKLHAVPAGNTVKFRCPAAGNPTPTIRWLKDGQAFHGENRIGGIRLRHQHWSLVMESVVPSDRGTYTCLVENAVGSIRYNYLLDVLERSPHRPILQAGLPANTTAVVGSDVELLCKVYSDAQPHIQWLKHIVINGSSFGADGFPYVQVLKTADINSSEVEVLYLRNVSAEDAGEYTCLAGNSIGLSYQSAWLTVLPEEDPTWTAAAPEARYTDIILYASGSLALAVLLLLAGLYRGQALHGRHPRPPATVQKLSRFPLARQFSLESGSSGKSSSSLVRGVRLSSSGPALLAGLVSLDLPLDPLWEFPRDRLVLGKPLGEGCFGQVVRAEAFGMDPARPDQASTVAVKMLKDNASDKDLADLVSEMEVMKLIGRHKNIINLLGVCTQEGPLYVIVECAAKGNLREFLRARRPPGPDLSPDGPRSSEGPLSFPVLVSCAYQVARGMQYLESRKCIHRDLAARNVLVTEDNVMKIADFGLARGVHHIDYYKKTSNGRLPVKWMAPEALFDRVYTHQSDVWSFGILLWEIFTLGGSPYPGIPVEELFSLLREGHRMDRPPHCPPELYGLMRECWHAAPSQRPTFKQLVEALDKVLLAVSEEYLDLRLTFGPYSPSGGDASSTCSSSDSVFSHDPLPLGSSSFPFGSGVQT
The assay can be described thus: IC50 Profiling of Kinase Activity Inhibition (Kinase HotSpot assay). Type of assay: biochemical. The following applies: Table 1.
What is called IC50 is the concentration that inhibits the measured activity by half. A high value points to a need for much substance. On to `C=CC(=O)Nc1cc(C(C)O)ccc1Nc1cc(N(C)C(=O)Nc2c(Cl)c(OC)cc(OC)c2Cl)ncn1` (centres unmarked) [Compound 156, N-(2-((6-(3-(2,6-dichloro-3,5-dimethoxyphenyl)-1-methylureido)pyrimidin-4-yl)amino)-5-(1-hydroxyethyl)phenyl) acrylamide], for which the IC50 was less than 1 nM. The result for `C=CC(=O)Nc1cccc(Cl)c1Nc1cc(N(C)C(=O)Nc2c(Cl)c(OC)cc(OC)c2Cl)ncn1` [Compound 167, N-(3-chloro-2-((6-(3-(2,6-dichloro-3,5-dimethoxyphenyl)-1-methylureido)pyrimidin-4-yl)amino)phenyl)acrylamide] reads less than 1 nM; that for `C#CC(=O)Nc1ccccc1Nc1cc(N(C)C(=O)Nc2c(Cl)c(OC)cc(OC)c2Cl)ncn1` [Compound 114, N-(2-(6-(3-(2,6-dichloro-3,5-dimethoxyphenyl)-1-methylureido)pyrimidin-4-ylamino)phenyl)propiolamide], less than 1 nM; that for `C=CC(=O)N(C)c1cc(N2CCN(CC)CC2)ccc1Nc1cc(N(C)C(=O)Nc2c(Cl)c(OC)cc(OC)c2Cl)ncn1` [Compound 152], 14 nM. The result for `C=CC(=O)Nc1cc(N2CCN(CC)CC2)ccc1Nc1cc(N(C)C(=O)Nc2c(F)c(OC)cc(OC)c2F)ncn1` [Compound 143] reads 10 nM. To `C=CC(=O)Nc1cc(C(=O)N2CCN(CC)CC2)ccc1Nc1cc(N(C)C(=O)Nc2c(Cl)c(OC)cc(OC)c2Cl)ncn1` [Compound 150, N-(2-((6-(3-(2,6-dichloro-3,5-dimethoxyphenyl)-1-methylureido)pyrimidin-4-yl)amino)-5-(4-ethylpiperazine-1-carbonyl)phenyl)acrylamide] belongs less than 1 nM; to `CCN1CCN(c2ccc(Nc3cc(N(C)C(=O)Nc4c(Cl)c(OC)cc(OC)c4Cl)ncn3)c(NC(=O)/C=C\Cl)c2)CC1` [Compound 181, (Z)-3-chloro-N-(2-((6-(3-(2,6-dichloro-3,5-dimethoxyphenyl)-1-methylureido)pyrimidin-4-yl)amino)-5-(4-ethylpiperazin-1-yl)phenyl)acrylamide], less than 1 nM. For `C=CC(=O)Nc1ccccc1Nc1cc(N(Cc2ccccc2)C(=O)Nc2c(Cl)c(OC)cc(OC)c2Cl)ncn1` [Compound 130, N-(2-{6-[1-Benzyl-3-(2,6-dichloro-3,5-dimethoxy-phenyl)-ureido]-pyrimidin-4-ylamino}-phenyl)-acrylamide], the IC50 came out at 2 nM. The result for `C=CC(=O)Nc1cc(C(C)OC)ccc1Nc1cc(N(C)C(=O)Nc2c(Cl)c(OC)cc(OC)c2Cl)ncn1` (centres unmarked) [Compound 155, N-(2-((6-(3-(2,6-dichloro-3,5-dimethoxyphenyl)-1-methylureido)pyrimidin-4-yl)amino)-5-(1-methoxyethyl)phenyl)acrylamide] reads less than 1 nM; that for `C=CC(=O)Nc1ccccc1Nc1cc(N(Cc2ccncc2)C(=O)Nc2c(Cl)c(OC)cc(OC)c2Cl)ncn1` [Compound 132], less than 1 nM. To `C=CC(=O)Nc1cc(N2CCN(CCN)CC2)ccc1Nc1cc(N(C)C(=O)Nc2c(Cl)c(OC)cc(OC)c2Cl)ncn1` [Compound 161, N-(5-(4-(2-aminoethyl)piperazin-1-yl)-2-((6-(3-(2,6-dichloro-3,5-dimethoxyphenyl)-1-methylureido)pyrimidin-4-yl)amino)phenyl)acrylamide 2 TFA salt] belongs less than 1 nM; to `C=CC(=O)Nc1ccccc1Nc1cc(N(CCOC)C(=O)Nc2c(Cl)c(OC)cc(OC)c2Cl)ncn1` [Compound 116, N-(2-{6-[3-(2,6-Dichloro-3,5-dimethoxy-phenyl)-1-(2-methoxy-ethyl)-ureido]-pyrimidin-4-ylamino}-phenyl)-acrylamide], 4 nM; to `C=CC(=O)Nc1ccccc1Nc1cc(N(Cc2ccccn2)C(=O)Nc2c(Cl)c(OC)cc(OC)c2Cl)ncn1` [Compound 131, N-(2-{6-[3-(2,6-Dichloro-3,5-dimethoxy-phenyl)-1-pyridin-2-ylmethyl-ureido]-pyrimidin-4-ylamino}-phenyl)-acrylamide], less than 1 nM.

As to `C=CC(=O)Nc1cccc(C)c1Nc1cc(N(C)C(=O)Nc2c(Cl)c(OC)cc(OC)c2Cl)ncn1` [Compound 165, N-(2-((6-(3-(2,6-dichloro-3,5-dimethoxyphenyl)-1-methylureido)pyrimidin-4-yl)amino)-3-methylphenyl)acrylamide], the IC50 was less than 1 nM. The result for `C=CC(=O)Nc1cccc(OC)c1Nc1cc(N(C)C(=O)Nc2c(Cl)c(OC)cc(OC)c2Cl)ncn1` [Compound 166, N-(2-((6-(3-(2,6-dichloro-3,5-dimethoxyphenyl)-1-methylureido)pyrimidin-4-yl)amino)-3-methoxyphenyl)acrylamide] reads less than 1 nM; that for `C=CC(=O)Nc1cc(N(C)CCO)ccc1Nc1cc(N(C)C(=O)Nc2c(Cl)c(OC)cc(OC)c2Cl)ncn1` [Compound 158, N-(2-((6-(3-(2,6-dichloro-3,5-dimethoxyphenyl)-1-methylureido)pyrimidin-4-yl)amino)-5-((2-hydroxyethyl)(methyl)amino)phenyl)acrylamide], less than 1 nM. `C=CC(=O)Nc1cc(N2CCN(C)CC2)ccc1Nc1cc(N(C)C(=O)Nc2c(Cl)c(OC)cc(OC)c2Cl)ncn1` [Compound 159]: the IC50 was less than 1 nM.

`C=CC(=O)Nc1cc(C(=O)N(C)C)ccc1Nc1cc(N(C)C(=O)Nc2c(Cl)c(OC)cc(OC)c2Cl)ncn1` [Compound 149, 3-acrylamido-4-((6-(3-(2,6-dichloro-3,5-dimethoxyphenyl)-1-methylureido)pyrimidin-4-yl)amino)-N,N-dimethylbenzamide] registered a 50% inhibitory concentration (IC50) of less than 1 nM. `COc1cc(OC)c(Cl)c(NC(=O)N(C)c2cc(Nc3ccccc3NC(=O)/C=C/Cl)ncn2)c1Cl` [Compound 170, (E)-3-chloro-N-(2-((6-(3-(2,6-dichloro-3,5-dimethoxyphenyl)-1-methylureido)pyrimidin-4-yl)amino)phenyl)acrylamide] had an IC50 of 8 nM. To `C=CC(=O)Nc1cc(N2CCN(S(C)(=O)=O)CC2)ccc1Nc1cc(N(C)C(=O)Nc2c(Cl)c(OC)cc(OC)c2Cl)ncn1` [Compound 125, N-[2-{6-[3-(2,6-Dichloro-3,5-dimethoxy-phenyl)-1-methyl-ureido]-pyrimidin-4-ylamino}-5-(4-methanesulfonyl-piperazin-1-yl)-phenyl]-acrylamide] belongs less than 1 nM. To `COc1cc(OC)c(Cl)c(NC(=O)N(C)c2cc(Nc3ccccc3NC(=O)/C=C\Cl)ncn2)c1Cl` [Compound 171, (Z)-3-chloro-N-(2-((6-(3-(2,6-dichloro-3,5-dimethoxyphenyl)-1-methylureido)pyrimidin-4-yl)amino)phenyl)acrylamide] belongs 3 nM. To `C=CC(=O)Nc1cc(OCCO)ccc1Nc1cc(N(C)C(=O)Nc2c(Cl)c(OC)cc(OC)c2Cl)ncn1` [Compound 164, 2,2,2-trifluoroacetate] belongs less than 1 nM; to `C=CC(=O)Nc1cc(N2CCN(CC)CC2)ccc1Nc1cc(N(C)C(=O)Nc2c(F)c(OC)cc(OC)c2Cl)ncn1` [Compound 144, N-(2-((6-(3-(2-chloro-6-fluoro-3,5-dimethoxyphenyl)-1-methylureido)pyrimidin-4-yl)amino)-5-(4-ethylpiperazin-1-yl)phenyl)acrylamide], less than 1 nM. The compound `C=CC(=O)Nc1cc(C2CCN(C)CC2)ccc1Nc1cc(N(C)C(=O)Nc2c(Cl)c(OC)cc(OC)c2Cl)ncn1` [Compound 112, N-(2-(6-(3-(2,6-dichloro-3,5-dimethoxyphenyl)-1-methylureido)pyrimidin-4-ylamino)-5-(1-methylpiperidin-4-yl)phenyl)acrylamide] gave an IC50 of less than 1 nM. In turn, `C=CC(=O)Nc1cc(COC)ccc1Nc1cc(N(C)C(=O)Nc2c(Cl)c(OC)cc(OC)c2Cl)ncn1` [Compound 147, N-(2-((6-(3-(2,6-dichloro-3,5-dimethoxyphenyl)-l-methylureido)pyrimidin-4-yl)amino)-5-(methoxymethyl)phenyl)acrylamide] showed a half-inhibitory concentration (IC50) of less than 1 nM.

`C=CC(=O)Nc1cc(N2CCN(CCO)CC2)ccc1Nc1cc(N(C)C(=O)Nc2c(Cl)c(OC)cc(OC)c2Cl)ncn1` [Compound 168, N-(2-((6-(3-(2,6-dichloro-3,5-dimethoxyphenyl)-1-methylureido)pyrimidin-4-yl)amino)-5-(4-(2-hydroxyethyl)piperazin-1-yl)phenyl)acrylamide TFA salt] gave an IC50 of less than 1 nM. To `C=CC(=O)Nc1cc(N2C[C@@H](C)N[C@@H](C)C2)ccc1Nc1cc(N(C)C(=O)Nc2c(Cl)c(OC)cc(OC)c2Cl)ncn1` [Compound 124, N-[2-{6-[3-(2,6-Dichloro-3,5-dimethoxy-phenyl)-1-methyl-ureido]-pyrimidin-4-ylamino}-5-(3,5-dimethyl-piperazin-1-yl)-phenyl]-acrylamide] belongs less than 1 nM; to `C=CC(=O)Nc1cc(N2CCN(CC)CC2)ccc1Nc1cc(N(C)C(=O)Nc2cc(OC)cc(OC)c2Cl)ncn1` [Compound 141, N-(2-((6-(3-(2-chloro-3,5-dimethoxyphenyl)-1-methylureido)pyrimidin-4-yl)amino)-5-(4-ethylpiperazin-1-yl)phenyl)acrylamide], 2 nM. The result for `C=CC(=O)Nc1c(F)cccc1Nc1cc(N(C)C(=O)Nc2c(Cl)c(OC)cc(OC)c2Cl)ncn1` [Compound 185, N-(2-((6-(3-(2,6-dichloro-3,5-dimethoxyphenyl)-1-methylureido)pyrimidin-4-yl)amino)-6-fluorophenyl)acrylamide] reads 13 nM; that for `C=CC(=O)Nc1c(Nc2cc(N(C)C(=O)Nc3c(Cl)c(OC)cc(OC)c3Cl)ncn2)cccc1OC` [Compound 186], 345 nM; that for `C=CC(=O)Nc1ccccc1Nc1cc(N(CCCN2CCN(C)CC2)C(=O)Nc2c(Cl)c(OC)cc(OC)c2Cl)ncn1` [Compound 121, N-[2-(6-{3-(2,6-Dichloro-3,5-dimethoxy-phenyl)-1-[3-(4-methyl-piperazin-1-yl)-propyl]-ureido}-pyrimidin-4-ylamino)-phenyl]-acrylamide], less than 1 nM. To `C=CC(=O)Nc1cc(N2CCN(CC)CC2)ccc1Nc1cc(N(C)C(=O)Nc2c(Cl)cccc2Cl)ncn1` [Compound 140, N-(2-((6-(3-(2,6-dichlorophenyl)-1-methylureido)pyrimidin-4-yl)amino)-5-(4-ethylpiperazin-1-yl)phenyl)acrylamide] belongs less than 1 nM.
